For 14 compounds, IC50 results are on record in patent US20070054916A1, “Aryl nitrogen-containing bicyclic compounds and methods of use” (Amgen Inc., priority 2004, published 2007).

Experiment [1] deals with production of TNF by monocytes activated with bacterial lipopolysaccharide (LPS). Put plainly: Lipopolysaccharide-activated monocyte TNF production assay. The experiment is classed as cell-based. Conditions: Homo sapiens, read-out: IC50 values in the monocyte assay (LPS induced TNF release). Summed up:
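Adherent human PBMC-derived monocytes (~70%) in DMEM/2% FCS were pre-incubated 60 min with nine two-fold compound dilutions, then stimulated with E. coli K532 LPS (added as 30 ng/ml solution) for 4 h at 37 °C. Supernatant TNF-α was measured by sandwich ELISA. IC50 was taken from a polynomial fit of TNF versus compound concentration.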

Another experiment concerns the target LCK KD GST (225-509) (Homo sapiens, UniProt P06239). In words: LCK Homogenous Time Resolved Flourescent (HTRF) kinase assay. Conditions: average IC50 value in the human HTRF assay for the inhibition of the Lck kinase enzyme. A general note: Time-resolved FRET reads energy transfer from a long-lived donor to a nearby acceptor.

A value given as a limit tells only on which side of the number the result lay.

Sequence of LCK KD GST (225-509) (P06239 225-509): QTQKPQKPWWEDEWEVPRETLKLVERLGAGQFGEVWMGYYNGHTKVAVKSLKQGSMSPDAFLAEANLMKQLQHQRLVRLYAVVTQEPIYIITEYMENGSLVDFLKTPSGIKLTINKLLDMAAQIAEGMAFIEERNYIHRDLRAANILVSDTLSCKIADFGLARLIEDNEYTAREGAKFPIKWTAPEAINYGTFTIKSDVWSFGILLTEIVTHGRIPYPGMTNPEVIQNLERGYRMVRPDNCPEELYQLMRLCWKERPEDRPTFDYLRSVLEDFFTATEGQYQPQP

A word on the IC50: it is the concentration that inhibits the measured activity by half. Regarding `CNc1ncc2cc(-c3cc(C(=O)Nc4ccc(OC)c(C(F)(F)F)c4)ccc3C)cnc2n1` [Example 184, 4-methyl-3-(2-(methylamino)pyrido [2,3-d]pyrimidin-6-yl)-N-(4-(methyloxy)-3-(trifluoromethyl)phenyl)benzamide], the IC50 in experiment [1] is at most 25000 nM; at LCK KD GST (225-509) it was at most 1000 nM.
On the same counts, the results for `COc1c(C(=O)Nc2cc(C(F)(F)F)ccc2N(C)CCCN(C)C)cc(-c2ccc3nc(N)ncc3c2)c(OC)c1OC` [Example 110, 5-(2-amino-6-quinazolinyl)-N-(2-((3-(dimethylamino)propyl)methyl)amino-5-(trifluoromethyl)phenyl)-2,3,4-tris(methyloxy)benzamide] are at most 25000 nM and at most 1000 nM.
As to `CNc1ncc2cc(-c3cccc(C(=O)Nc4cccc(OC(F)(F)F)c4)c3C)cnc2n1` [Example 183, 2-methyl-3-(2-(methylamino)pyrido [2,3-d]pyrimidin-6-yl)-N-(3-((trifluoromethyl)oxy)phenyl)benzamide], the IC50 was at most 25000 nM in experiment [1] and at most 1000 nM on LCK KD GST (225-509).
The compound `Cc1ccc(C(=O)NC2CC2)cc1-c1ccc2nc(NC3CCN(C)CC3)ncc2c1` [Example 45, N-cyclopropyl-4-methyl-3-(2-((1-methyl-4-piperidinyl)amino)-6-quinazolinyl) benzamide] had an IC50 against LCK KD GST (225-509) of at most 25000 nM.
As for `CN(C)c1cccc2c(S(=O)(=O)Nc3cccc(-c4ccc5nc(N)ncc5c4)c3)cccc12` [Example 55, N-(3-(2-amino-6-quinazolinyl)phenyl)-5-(dimethylamino)-1-naphthalenesulfonamide], the IC50 was at most 25000 nM in experiment [1] and at most 1000 nM against LCK KD GST (225-509).
As for `Cc1ccc(C(=O)NC2CC2)cc1-c1ccc2nc(NCCN(C)C)ncc2c1` [Example 44], on LCK KD GST (225-509), the IC50 was at most 25000 nM.
Take `COc1c(C(=O)Nc2cccc(C(F)(F)F)c2)cc(-c2ccc3nc(N)ncc3c2)c(OC)c1OC` [Example 109, 5-(2-amino-6-quinazolinyl)-2,3,4-tris(methyloxy)-(trifluoromethyl)-N-(3-phenyl)benzamide]: the IC50 in experiment [1] is at most 25000 nM; on LCK KD GST (225-509), at most 1000 nM.
On LCK KD GST (225-509), `Nc1ncc2cc(-c3cccc(C(=O)Nc4cccc(OC(F)(F)F)c4)c3)ccc2n1` [Example 98, 3-(2-amino-6-quinazolinyl)-N-(3-((trifluoromethyl)oxy)phenyl)benzamide] showed an IC50 of at most 1000 nM.
As for `CN(C)CCCN(C)c1ccc(C(F)(F)F)cc1NC(=O)c1cc(-c2ccc3nc(N)ncc3c2)cc2c1OCC2` [Example 96, 5-(2-amino-6-quinazolinyl)-N-(2-((3-(dimethylamino)propyl)(methyl)amino)-5-(trifluoromethyl)phenyl)-2,3-dihydro-1-benzofuran-7-carboxamide], the IC50 at LCK KD GST (225-509) was at most 1000 nM.
For `CNc1ncc2cc(-c3cc(C(=O)Nc4ccc(F)c(C(F)(F)F)c4)ccc3C)ccc2n1` [Example 16, N-(4-fluoro-3-(trifluoromethyl)phenyl)-4-methyl-3-(2-(methylamino)-6-quinazolinyl)benzamide], the IC50 was at most 25000 nM in experiment [1] and at most 1000 nM against LCK KD GST (225-509).
In the case of `Nc1ncc2cc(-c3ccc(C(=O)Nc4cccc(C(F)(F)F)c4)cc3)ccc2n1` [Example 15, 4-(2-amino-6-quinazolinyl)-N-(3-(trifluoromethyl)phenyl)benzamide], the IC50 at LCK KD GST (225-509) is at most 1000 nM.
Consider `Cc1ccc(C(=O)Nc2cccc(NC(=O)CN3CCOCC3)c2C)cc1-c1ccc2nc(N)ncc2c1` [Example 56, 3-(2-Amino-6-quinazolinyl)-4-methyl-N-(2-methyl-3-((4-morpholinylacetyl)amino)phenyl)benzamide], for which the IC50 was at most 25000 nM in experiment [1] and at most 1000 nM at LCK KD GST (225-509).
As for `CC(C)c1cccc(C(=O)Nc2cc(-c3ccc4nc(N)ncc4c3)cc(C(F)(F)F)c2)c1` [Example 512, N-(3-(2-amino-6-quinazolinyl)-5-(trifluoromethyl)phenyl)-3-(1-methylethyl)benzamide], the IC50 against LCK KD GST (225-509) was at most 1000 nM.
Same read-out and setting: in the case of `Cc1ccc(C(=O)Nc2cc(C(F)(F)F)ccc2CN2CCN(C)CC2)cc1-c1ccc2ncnc(N)c2c1` [Example 383, 3-(4-amino-6-quinazolinyl)-4-methyl-N-(2-((4-methyl-1-piperazinyl)methyl)-5-(trifluoromethyl)phenyl)benzamide] it was at most 1000 nM.
